# Assay results as given in patent US12516016B2, “GPX4 inhibitors, pharmaceutical compositions thereof, and their use for treating GPX4-mediated diseases” (EUBULUS BIOTHERAPEUTICS (HONG KONG) LIMITED, priority 2020, dated 2026).
# Tested on: hepatocellular carcinoma cell line Hub-7
# Experiment: Cell proliferation assay (CELL-TITER GLO cell viability)
# Assay type: cell-based
# Conditions: 24 h, Hub-7 cells, 24 h incubation, read-out: Inhibition of Cell Proliferation EC50
# Summary of the method: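 […] cells (4,000/well) seeded overnight, then exposed 24 h to compound from 10 μM in 3-fold serial dilutions. Viability read by CELL-TITER GLO luminescence; EC50 values derived.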
row,SMILES,EC50 [nM]
1,"C#CC(=O)N(c1ccc2c(cnn2C)c1)C1(C(=O)NCc2ccccc2)CCCC(=O)C1 (centres unmarked) [A165, N-Benzyl-1-(N-(1-methyl-1H-indazol-5-yl)propiolamido)-3-oxocyclohexane-1-carboxamide]",100 to 500
2,"C#CC(=O)N(CCc1ccccc1)C1(C(=O)NCc2ccccc2)CCCC(C(=O)OC)C1 (centres unmarked) [A166, Methyl 3-(benzylcarbamoyl)-3-(N-phenethylpropiolamido)cyclohexane-1-carboxylate]",100 to 500
3,"C#CC(=O)N(Cc1cccc(O)c1)C1(C(=O)NCc2ccccc2)CCCC(C(=O)OC)C1 (centres unmarked) [A167, Methyl 3-(benzylcarbamoyl)-3-(N-(3-hydroxybenzyl)propiolamido)cyclohexane-1-carboxylate]",100 to 500
4,"C#CC(=O)N(C1CCC1)C1(C(=O)NCc2ccccc2)CCCC(C(=O)OC)C1 (centres unmarked) [A168, Methyl 3-(benzylcarbamoyl)-3-(N-cyclobutylpropiolamido)cyclohexane-1-carboxylate]",500 to 2000
5,"C#CC(=O)N(CCc1ccccc1)C1(C(=O)NCc2ccccc2)CCCC(C(=O)O)C1 (centres unmarked) [A169, 3-(Benzylcarbamoyl)-3-(N-phenethylpropiolamido)cyclohexane-1-carboxylic acid]",> 10000
6,"C#CC(=O)N(Cc1cccc(O)c1)C1(C(=O)NCc2ccccc2)CCCC(C(=O)O)C1 (centres unmarked) [A170, 3-(Benzylcarbamoyl)-3-(N-(3-hydroxybenzyl)propiolamido)cyclohexane-1-carboxylic acid]",> 10000
7,"C#CC(=O)N(c1cccc(Cl)c1)C1(C(=O)NCc2ccccc2)CCCC(O)C1 (centres unmarked) [A171, N-Benzyl-1-(N-(3-chlorophenyl)propiolamido)-3-hydroxycyclohexane-carboxamide]",2000 to 10000
8,"C#CC(=O)N(c1cccc(Cl)c1)C1(C(=O)NCc2cccc(Cl)c2)CCOCC1 [A182, N-(3-Chlorobenzyl)-4-(N-(3-chlorophenyl)propiolamido)tetrahydro-2H-pyran-4-carboxamide]",≤ 100
9,"C#CC(=O)N(c1cccc(Cl)c1)C1(C(=O)NCC(=O)N2CCCC(O)C2)CCOCC1 (centres unmarked) [A183, 4-(N-(3-Chlorophenyl)propiolamido)-N-(2-(3-hydroxypiperidin-1-yl)-2-oxoethyl)tetrahydro-2H-pyran-4-carboxamide]",2000 to 10000
10,"C#CC(=O)N(c1cccc(Cl)c1)C1(C(=O)NCC(=O)N2CCCC(C(=O)OC)C2)CCOCC1 (centres unmarked) [A184, Methyl 1-(2-(4-(N-(3-chlorophenyl)propiolamido)tetrahydro-2H-pyran-4-carboxamido)acetyl)piperidine-3-carboxylate]",100 to 500
11,"C#CC(=O)N(c1cccc(Cl)c1)C1(C(=O)NCC(=O)NCc2ccccc2O)CCOCC1 [A185, 4-(N-(3-Chlorophenyl)propiolamido)-N-(2-((2-hydroxybenzyl)amino)-2-oxoethyl)tetrahydro-2H-pyran-4-carboxamide]",100 to 500
12,"C#CC(=O)N(c1cccc(Cl)c1)C1(C(=O)NCC(=O)NCCO)CCOCC1 [A186, 4-(N-(3-Chlorophenyl)propiolamido)-N-(2-((2-hydroxyethyl)amino)-2-oxoethyl)-tetrahydro-2H-pyran-4-carboxamide]",2000 to 10000
13,"C#CC(=O)N(c1cccc(Cl)c1)C1(C(=O)NCC(=O)NCc2ccccc2Cl)CCOCC1 [A187, N-(2-((2-Chlorobenzyl)amino)-2-oxoethyl)-4-(N-(3-chlorophenyl)propiolamido)-tetrahydro-2H-pyran-4-carboxamide]",100 to 500
14,"C#CC(=O)N(c1cccc(Cl)c1)C1(C(=O)NCC(=O)NCc2ccccc2)CCOCC1 [A188, N-(2-(Benzylamino)-2-oxoethyl)-4-(N-(3-chlorophenyl)propiolamido)tetrahydro-2H-pyran-4-carboxamide]",100 to 500
15,"C#CC(=O)N(c1cccc(Cl)c1)C1(C(=O)NCC(=O)NCc2ccccc2C#N)CCOCC1 [A189, 4-(N-(3-Chlorophenyl)propiolamido)-N-(2-((2-cyanobenzyl)amino)-2-oxoethyl)-tetrahydro-2H-pyran-4-carboxamide]",100 to 500
16,"C#CC(=O)N(c1ccc(OC)cc1OC)C(C(=O)NCC(=O)OCC)c1cccs1 (centres unmarked) [A190, Ethyl 2-(2-(N-(2,4-dimethoxyphenyl)propiolamido)-2-(thiophen-2-yl)acetamido)-acetate]",500 to 2000
17,"C#CC(=O)N(c1cccc(Cl)c1)C1(C(=O)NCC(=O)OCC)CCOCC1 [A191, Ethyl 2-(4-(N-(3-chlorophenyl)propiolamido)tetrahydro-2H-pyran-4-carboxamido)acetate]",500 to 2000
18,"C#CC(=O)N(c1cccc(Cl)c1)C1(C(=O)NCC(=O)O)CCOCC1 [A192, 2-(4-(N-(3-Chlorophenyl)propiolamido)tetrahydro-2H-pyran-4-carboxamido)-acetic acid]",> 10000
19,"C#CC(=O)N(c1cccc(Cl)c1)C1(C(=O)NCC(=O)Nc2ccccc2)CCOCC1 [A193, 4-(N-(3-Chlorophenyl)propiolamido)-N-(2-oxo-2-(phenylamino)ethyl)tetrahydro-2H-pyran-4-carboxamide]",100 to 500

# The next lines start with the values.
row,EC50 [nM],SMILES
1,≤ 100,"C#CC(=O)N(c1ccc2c(cnn2C)c1)C1(C(=O)NCc2ccccc2)CCC(=O)CC1 [A164, N-Benzyl-1-(N-(1-methyl-1H-indazol-5-yl)propiolamido)-4-oxocyclohexane-1-carboxamide]"
2,≤ 100,"C#CC(=O)N(c1cccc(Cl)c1)C1(C(=O)NCc2ccccc2)CCCC(=O)C1 (centres unmarked) [A172, N-Benzyl-1-(N-(3-chlorophenyl)propiolamido)-3-oxocyclohexanecarboxamide]"
3,≤ 100,"C#CC(=O)N(c1cccc(Cl)c1)C1(C(=O)NCc2ccccc2)CCCC(C(=O)OC)C1 (centres unmarked) [A173, Methyl 3-(benzylcarbamoyl)-3-(N-(3-chlorophenyl)propiolamido)cyclohexane-carboxylate]"
4,≤ 100,"C#CC(=O)N(c1cccc(Cl)c1)C1(C(=O)NCc2ccccc2)CCCOC1 (centres unmarked) [A174, N-Benzyl-3-(N-(3-chlorophenyl)propiolamido)tetrahydro-2H-pyran-3-carboxamide]"
5,≤ 100,"C#CC(=O)N(c1cccc(Cl)c1)C1(C(=O)NCc2ccccc2)CCC(=O)CC1 [A175, N-Benzyl-1-(N-(3-chlorophenyl)propiolamido)-4-oxocyclohexane-1-carboxamide]"
6,≤ 100,"C#CC(=O)N(c1ccc2c(cnn2C)c1)C1(C(=O)NCc2ccccc2)CCCOC1 (centres unmarked) [A176, N-Benzyl-3-(N-(1-methyl-1H-indazol-5-yl)propiolamido)tetrahydro-2H-pyran-3-carboxamide]"
7,≤ 100,"C#CC(=O)N(c1ccc2c(cnn2C)c1)C1(C(=O)NCc2ccccc2)CCCC(C(=O)OC)C1 (centres unmarked) [A177, Methyl 3-(benzylcarbamoyl)-3-(N-(1-methyl-1H-indazol-5-yl)propiolamido)-cyclohexane-1-carboxylate]"
8,≤ 100,"C#CC(=O)N(c1cccc(Cl)c1)C(C(=O)NCc1ccccc1C#N)c1ccccc1 (centres unmarked) [A178, N-(3-Chlorophenyl)-N-(2-((2-cyanobenzyl)amino)-2-oxo-1-phenylethyl)-propiolamide]"
9,≤ 100,"C#CC(=O)N(c1cccc(Cl)c1)C(C(=O)NCC1CCOCC1)c1ccccc1 (centres unmarked) [A180, N-(3-Chlorophenyl)-N-(2-oxo-1-phenyl-2-(((tetrahydro-2H-pyran-4-yl)methyl)-amino)ethyl)propiolamide]"
10,≤ 100,"C#CC(=O)N(c1cccc(Cl)c1)C(C(=O)NCC1COC1)c1ccccc1 (centres unmarked) [A181, N-(3-Chlorophenyl)-N-(2-((oxetan-3-ylmethyl)amino)-2-oxo-1-phenylethyl)-propiolamide]"
